Our source for the Ki values is US10533010B2, “Substituted indole Mcl-1 inhibitors” (Vanderbilt University, priority 2014, dated 2020).

As a reminder, the Ki is a dissociation constant, usually derived from enzyme kinetics or from competition with a known ligand.

Where only a bound is given, the exact number is not on record here.

One test deals with recombinant Mcl-1 (residues 172-327) (Homo sapiens (Human), UniProt Q07820). Kind of test: Fluorescence polarization anisotropy competition assay (FITC-Bak or FITC-Bim BH3 peptide) with Mcl-1. As to conditions: Table 2; Ki bins given in nM; FITC-Bak or FITC-Bim peptide competition; Ki converted from IC50; read-out: Ki for Inhibition of Mcl-1. In kind it is binding. For orientation: Polarisation of emitted light reports the rotation of a fluorescent probe.
Sequence of recombinant Mcl-1 (residues 172-327) (Q07820 172-327): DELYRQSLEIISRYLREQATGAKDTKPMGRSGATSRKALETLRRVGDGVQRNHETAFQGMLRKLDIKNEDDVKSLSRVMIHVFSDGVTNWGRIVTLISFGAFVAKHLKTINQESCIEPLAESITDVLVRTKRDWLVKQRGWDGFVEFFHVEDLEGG
As for `Cc1cc(OCCCc2c(C(=O)Nc3cc(C(=O)O)c4cc[nH]c4c3)[nH]c3c(-c4c(C)nn(C)c4C)c(Cl)ccc23)cc(C)c1Cl` [I-238, 6-(6-chloro-3-(3-(4-chloro-3,5-dimethylphenoxy)propyl)-7-(1,3,5-trimethyl-1H-pyrazol-4-yl)-1H-indole-2-carboxamido)-1H-indole-4-carboxylic acid], the Ki is < 50 nM.
Consider `Cc1cc(OCCCc2c(C(=O)N[C@H]3CCN(C(=O)C(=O)O)C3)[nH]c3c(-c4c(C)nn(C)c4C)c(Cl)ccc23)cc(C)c1Cl` [I-325, (S)-2-(3-(6-chloro-3-(3-(4-chloro-3,5-dimethylphenoxy)propyl)-7-(1,3,5-trimethyl-1H-pyrazol-4-yl)-1H-indole-2-carboxamido)pyrrolidin-1-yl)-2-oxoacetic acid], for which the Ki is < 50 nM.
Regarding `Cc1cc(OCCCc2c3n(c4c(-c5c(C)nn(C)c5C)c(Cl)ccc24)C[C@@H](C)N(c2ccc(C(=O)O)cc2)C3=O)cc(C)c1Cl` [I-156, (R)-4-(7-chloro-10-(3-(4-chloro-3,5-dimethylphenoxy)propyl)-3-methyl-1-oxo-6-(1,3,5-trimethyl-1H-pyrazol-4-yl)-3,4-dihydropyrazino[1,2-a]indol-2(1H)-yl)benzoic acid], the Ki is < 50 nM.
For the molecule `Cc1cc(CN2CCCn3c(c(CCCOc4cc(C)c(Cl)c(C)c4)c4ccc(Cl)c(-c5c(C)nn(C)c5C)c43)C2=O)cc(C(=O)O)c1` [I-297, 3-((8-chloro-11-(3-(4-chloro-3,5-dimethylphenoxy)propyl)-1-oxo-7-(1,3,5-trimethyl-1H-pyrazol-4-yl)-4,5-dihydro-1H-[1,4]diazepino[1,2-a]indol-2(3H)-yl)methyl)-5-methylbenzoic acid], the Ki fell in the range of 51 to 100 nM.
Still for that read-out and setting: then `Cc1cc(OCCCc2c(C(=O)NCc3cc(C(=O)O)c(C)o3)[nH]c3c(-c4c(C)nn(C)c4C)cccc23)cc(C)c1Cl` [I-273, 5-((3-(3-(4-chloro-3,5-dimethylphenoxy)propyl)-7-(1,3,5-trimethyl-1H-pyrazol-4-yl)-1H-indole-2-carboxamido)methyl)-2-methylfuran-3-carboxylic acid], with < 50 nM.
For the molecule `Cc1cc(OCCCc2c(C(=O)Nc3cc(C(=O)O)cc(N4CCOCC4)c3)[nH]c3c(-c4c(C)nn(C)c4C)c(Cl)ccc23)cc(C)c1Cl` [I-208, 3-(6-chloro-3-(3-(4-chloro-3,5-dimethylphenoxy)propyl)-7-(1,3,5-trimethyl-1H-pyrazol-4-yl)-1H-indole-2-carboxamido)-5-morpholinobenzoic acid], the Ki was < 50 nM.
On the same count and under the same terms, the value for `Cc1cc(OCCCc2c3n(c4c(-c5c(C)nn(C)c5C)c(Cl)ccc24)CCCN(c2nc(C(=O)O)cs2)C3=O)cc(C)c1Cl` [I-359, 2-(8-chloro-11-(3-(4-chloro-3,5-dimethylphenoxy)propyl)-1-oxo-7-(1,3,5-trimethyl-1H-pyrazol-4-yl)-4,5-dihydro-1H-[1,4]diazepino[1,2-a]indol-2(3H)-yl)thiazole-4-carboxylic acid] was < 50 nM; that for `Cc1cc(OCCCc2c(C(=O)NCc3cccc(C(=O)O)c3)n(CCN3CCOCC3)c3c(-c4c(C)nn(C)c4C)c(Cl)ccc23)cc(C)c1Cl` [I-372, 3-((6-chloro-3-(3-(4-chloro-3,5-dimethylphenoxy)propyl)-1-(2-morpholinoethyl)-7-(1,3,5-trimethyl-1H-pyrazol-4-yl)-1H-indole-2-carboxamido)methyl)benzoic acid] was < 50 nM; that for `Cc1cc(OCCCc2c3n(c4c(-c5c(C)nn(C)c5C)c(Cl)ccc24)CCCN(CC(=O)O)C3=O)cc(C)c1Cl` [I-304, 2-(8-chloro-11-(3-(4-chloro-3,5-dimethylphenoxy)propyl)-1-oxo-7-(1,3,5-trimethyl-1H-pyrazol-4-yl)-4,5-dihydro-1H-[1,4]diazepino[1,2-a]indol-2(3H)-yl)acetic acid] was < 50 nM.
On the same count and under the same terms, then `Cc1cc(OCCCc2c3n(c4c(-c5c(C)nn(C)c5C)c(Cl)ccc24)C(C)CCNC3=O)cc(C)c1Cl` (centres unmarked) [I-116, 8-chloro-1-(3-(4-chloro-3,5-dimethylphenoxy)propyl)-5-methyl-7-(1,3,5-trimethyl-1H-pyrazol-4-yl)-2,3,4,5-tetrahydro-1H-[1,4]diazepino[1,2-a]indol-1-one], with < 50 nM.
On the same count and under the same terms, the value for `Cc1cc(OCCCc2c3n(c4c(-c5c(C)nn(C)c5C)c(Cl)ccc24)CCCN(c2cc(C(=O)O)cc4nnn(C)c24)C3=O)cc(C)c1Cl` [I-362, 7-(8-chloro-11-(3-(4-chloro-3,5-dimethylphenoxy)propyl)-1-oxo-7-(1,3,5-trimethyl-1H-pyrazol-4-yl)-4,5-dihydro-1H-[1,4]diazepino[1,2-a]indol-2(3H)-yl)-1-methyl-1H-benzo[d][1,2,3]triazole-5-carboxylic acid] was < 50 nM; that for `Cc1cc(OCCCc2c3n(c4c(-c5c(C)nn(C)c5C)c(Cl)ccc24)[C@H](C)CN(Cc2ccc(C(=O)O)cn2)C3=O)cc(C)c1Cl` [I-153, (R)-6-((7-chloro-10-(3-(4-chloro-3,5-dimethylphenoxy)propyl)-4-methyl-1-oxo-6-(1,3,5-trimethyl-1H-pyrazol-4-yl)-3,4-dihydropyrazino[1,2-a]indol-2(1H)-yl)methyl)nicotinic acid] was < 50 nM; that for `Cc1cc(OCCCc2c3n(c4c(-c5c(C)nn(C)c5C)c(Cl)ccc24)CCCN(c2cc(C(=O)O)c4cc[nH]c4c2)C3=O)cc(C)c1Cl` [I-253, 6-(8-chloro-11-(3-(4-chloro-3,5-dimethylphenoxy)propyl)-1-oxo-7-(1,3,5-trimethyl-1H-pyrazol-4-yl)-4,5-dihydro-1H-[1,4]diazepino[1,2-a]indol-2(3H)-yl)-1H-indole-4-carboxylic acid] was < 50 nM.
Take `Cc1nn(C)c(C)c1-c1cccc2c(CCCOc3cccc4ccccc34)c(C(=O)Nc3cncc(C(=O)O)c3)[nH]c12` [I-194, 5-(3-(3-(naphthalen-1-yloxy)propyl)-7-(1,3,5-trimethyl-1H-pyrazol-4-yl)-1H-indole-2-carboxamido)nicotinic acid]: the Ki fell in the range of 51 to 100 nM.
On the same count and under the same terms, then `Cc1cc(OCCCc2c3n(c4c(-c5c(C)nn(C)c5C)c(Cl)ccc24)CCCN(c2cc(CN4CCCC4)cc(C(=O)O)c2)C3=O)cc(C)c1Cl` [I-225, 3-(8-chloro-11-(3-(4-chloro-3,5-dimethylphenoxy)propyl)-1-oxo-7-(1,3,5-trimethyl-1H-pyrazol-4-yl)-4,5-dihydro-1H-[1,4]diazepino[1,2-a]indol-2(3H)-yl)-5-(pyrrolidin-1-ylmethyl)benzoic acid], with < 50 nM; and `Cc1cc(OCCCc2c3n(c4c(-c5c(C)nn(C)c5C)c(Cl)ccc24)CCCN(Cc2cc(NCCC(C)C)cc(C(=O)O)c2)C3=O)cc(C)c1Cl` [I-328, 3-((8-chloro-11-(3-(4-chloro-3,5-dimethylphenoxy)propyl)-1-oxo-7-(1,3,5-trimethyl-1H-pyrazol-4-yl)-4,5-dihydro-1H-[1,4]diazepino[1,2-a]indol-2(3H)-yl)methyl)-5-(isopentylamino)benzoic acid], with < 50 nM.

The same test, now with this note: Table 2; Ki bins given in μM; FITC-Bak or FITC-Bim peptide competition; Ki converted from IC50; read-out: Ki for Inhibition of Mcl-1.
`Cc1cc(OCCCc2c(C(=O)N3CCC(NC(=O)OC(C)(C)C)CC3)[nH]c3ccccc23)cc(C)c1Cl` [I-48, tert-butyl (1-(3-(3-(4-chloro-3,5-dimethylphenoxy)propyl)-1H-indole-2-carbonyl)piperidin-4-yl)carbamate]: the Ki was in the range of 1000 to 9990 nM.
